Data set [1] concerns rat liver microsomes. The format is biochemical. On the set-up: key: Positive: the development of coloration denoted a positive response; Negative: the absence of such coloration denoted a negative response.
In the next data set the test system is Salmonella typhimurium. The settings on record: cited from earlier work.
The conditions of data set [2]: in vivo; cited from earlier work.
The conditions of data set [3]: in vivo; cited from earlier work. The source holds these as a separate data set.
Data set [4] deals with rat liver microsomes. Format: biochemical. On the set-up: unit not given here.
Data set [5] has as its system rat liver microsomes. The data set is described as follows: Color development in detection elements with different leuco dyes (Table 2). Format: biochemical. The settings on record: applied dose 10 μmol (formaldehyde 1 μmol); for New Color Development, NBTZ: unexposed control also Black. As to the method: Solutions containing 0.5 mM of the respective dyes in 0.1 M TRIS buffer, pH=7.4 (except for nitro blue tetrazolium, 5.0 mM in 50% ethanolic TRIS, pH=7.4) were bleached with a few crystals of sodium sulfite or sodium dithionite, then plied in 0.02 mL aliquots as test spots on a clear sheet of transparency film. Spontaneous color development in air was noted (Table 2). Subsequently, a suspension of rat liver microsomes containing 1 mM NADPH and 1 mg/mL gelatin in 0.1 M TRIS-MOPS buffer (pH=7.7) was plied in 0.05 mL aliquots over the dried leuco-dye test spots. After drying, color development condition was noted, and the test spots saved for exposure tests to chemical substances (Table 2). Exposures were carried out by layering 0.01 mL of 0.1-1.0 M solutions of test chemical substances onto the test spots, and changes in color noted over time.

A short description of data set [6]: Direct reaction of chemicals with the indicator leuco dye. To be noted: without metabolic activation.
The conditions of data set [7]: cited from earlier work; for E1/2: literature (Kemula and Axt); for Em7: midpoint redox potential.

Read-outs that look alike come from different tables or passages of the source. Marks after values point to notes of the source that are not given here. Some results are limits rather than exact numbers.

With `CC(=O)O` [Acetate], in the data set with rat liver microsomes [1], the “Invention Response” value was “Negative”. Moreover, the Mutagenicity result in the data set on Salmonella typhimurium is recorded as “-”. Moreover, the “Teratogen Activity” value in data set [2] is on record as “-”. In data set [3], the “Carcinogenic Status” value was “Negative” and the “Tumorigen Activity” value is “-”.
`Nc1ccccc1` [Aniline]: the “Invention Response” value with rat liver microsomes [1] is “Positive”. The Mutagenicity result with Salmonella typhimurium is “+”. Moreover, the “Teratogen Activity” value in [2] is “-”. The “Detector Response, threshold dose” value with rat liver microsomes [4] was 5. Besides, in data set [3], the “Carcinogenic Status” value was “Possible” and the “Tumorigen Activity” value is “+^e”.
Take `CC(Cl)(Cl)Cl` [CH3 CCl3]: in the data set with rat liver microsomes [5], the “New Color Development, Methyl Green leuco dye” value is “None”; the “New Color Development, Methyl Violet leuco dye” value was “None^a,b”; the “New Color Development, Naphthol Blue-Black leuco dye” value is “None”; the “New Color Development, Nile Blue A leuco dye” value is reported as “None”. In addition, in the data set on rat liver microsomes [5], the “New Color Development, Safranin O leuco dye” value is recorded as “None” and the “New Color Development, NBTZ” value is on record as “Black”.
Consider `[Cd+2]` [Cd(II)], for which, in the data set on cytochrome P450IA1 (compared with the shift seen for hydrazine), the “Dose-response shift, BNF-induced detection elements versus uninduced controls” value (“Dose-response shift” for short) was “less significantly”. In addition, in the data set on Salmonella typhimurium, the Mutagenicity entry was “+”. In addition, the “Teratogen Activity” value in data set [2] is “+”. In addition, the “Tumorigen Activity, assignment based on IARC reports” value in data set [3] was “+”.
As to `ClC1=C(Cl)C2(Cl)C3C(Cl)C(Cl)CC3C1(Cl)C2(Cl)Cl` (stereo not shown) [Chlordane], the “Invention Response” value in the data set on rat liver microsomes [1] was “Positive”. For the same molecule, in data set [3], the “Carcinogenic Status” value is given as “Positive”.
For `O=c1ccc2ccccc2o1` [Coumarin], the “Invention Response” value in the data set with rat liver microsomes [1] is given as “Positive”. In data set [3], the “Carcinogenic Status” value is on record as “Positive”.
Consider `CN(C)C(=O)Nc1ccc(Cl)c(Cl)c1` [DCMU, 3(3,4-Dichlorophenyl)-1,1,dimethylurea], for which the “Invention Response” value in the data set on rat liver microsomes [1] was “Positive”. The “Teratogen Activity” value in data set [2] is reported as “+”. Further, in data set [3], the “Carcinogenic Status” value is recorded as “Teratogen only” and the “Tumorigen Activity” value is recorded as “+^e”.
Take `CC(C)[C@@H](C)/C=C/[C@@H](C)[C@H]1CC[C@H]2C3=CC=C4C[C@@H](O)CC[C@]4(C)[C@H]3CC[C@]12C` [Ergosterol]: the Mutagenicity result with Salmonella typhimurium is “-”. Further, in the data set with rat liver microsomes [5], the “New Color Development, Methyl Green leuco dye” value is “Green”; the “New Color Development, Methyl Violet leuco dye” value is reported as “Violet”; the “New Color Development, Naphthol Blue-Black leuco dye” value is given as “None”; the “New Color Development, Nile Blue A leuco dye” value is reported as “Blue”. For the same molecule, in the data set on rat liver microsomes [5], the “New Color Development, Safranin O leuco dye” value is “Pink” and the “New Color Development, NBTZ” value is “Black”. The “Teratogen Activity” value in [2] is reported as “+”. Moreover, the “Detector Response, threshold dose” value with rat liver microsomes [4] is recorded as 0.1. Also, the “Tumorigen Activity” value in data set [3] is recorded as “-”.
In the case of `C=O` [Formaldehyde], in the data set on rat liver microsomes [1], the “Invention Response” value is given as “Positive”. In the data set on Salmonella typhimurium, the Mutagenicity result is given as “-” and the “Mutagenicity, direct-acting mutagen” value is “+”. In addition, in the data set with rat liver microsomes [5], the “New Color Development, Methyl Violet leuco dye” value is “Violet”; the “New Color Development, Naphthol Blue-Black leuco dye” value is “None”; the “New Color Development, Nile Blue A leuco dye” value is on record as “Blue”; the “New Color Development, Safranin O leuco dye” value is given as “None”. For the same molecule, the “New Color Development, NBTZ” value in the data set with rat liver microsomes [5] is listed as “Black”. Besides, in data set [2], the “Teratogen Activity” value was “+”. Moreover, in data set [6], the “Direct reaction with the indicator leuco dye” value (“Direct reaction” below) is recorded as “react directly with the indicator dye”. In the data set on rat liver microsomes [4], the “Detector Response, threshold dose” value was 0.01. In data set [3], the “Carcinogenic Status” value is reported as “Probable” and the “Tumorigen Activity” value is on record as “+”.
Take `OO` [H2 O2]: in the data set with Salmonella typhimurium, the Mutagenicity result was “+”. For the same molecule, in data set [2], the “Teratogen Activity” value is “-”. Further, the “Direct reaction” value in [6] is on record as “react directly with the indicator dye”. Further, in the data set on rat liver microsomes [4], the “Detector Response, threshold dose” value is 1-2. Besides, in [3], the “Tumorigen Activity, assignment based on IARC reports” value is “+”.
On to `O=C(O)CI` [ICH2 COOH, iodoacetic acid], for which, in the data set on rat liver microsomes [5], the “New Color Development, Methyl Green leuco dye” value was “Green”; the “New Color Development, Methyl Violet leuco dye” value was “Purple”; the “New Color Development, Naphthol Blue-Black leuco dye” value is reported as “None”; the “New Color Development, Safranin O leuco dye” value is listed as “None”. Besides, in the data set with rat liver microsomes [5], the “New Color Development, NBTZ” value was “Black”. Besides, the “Direct reaction” value in data set [6] is on record as “react with the leuco dye to give colored products”. The “Direct reaction” value in [6] (listed as iodoacetate) is reported as “react directly with the indicator dye”.
With `CC1=CC(=O)c2ccccc2C1=O` [Menadione], the “Invention Response” value in the data set with rat liver microsomes [1] was “Positive”. The Mutagenicity result with Salmonella typhimurium is reported as “+”. Besides, in the data set with rat liver microsomes [5], the “New Color Development, Methyl Green leuco dye” value is given as “None”; the “New Color Development, Methyl Violet leuco dye” value is on record as “None^a,b”; the “New Color Development, Naphthol Blue-Black leuco dye” value is “None^b”; the “New Color Development, Nile Blue A leuco dye” value was “None^b”. Also, in the data set with rat liver microsomes [5], the “New Color Development, Safranin O leuco dye” value is listed as “None” and the “New Color Development, NBTZ” value is recorded as “Black”. Besides, in [2], the “Teratogen Activity” value was “+”. Also, in the data set on rat liver microsomes [4], the “Detector Response, threshold dose” value was 0.01. In addition, in data set [3], the “Carcinogenic Status” value is on record as “Possible” and the “Tumorigen Activity” value is “+^e”.
Turning to `CN(C)c1ccc(C(=C2C=CC(=[N+](C)C)C=C2)c2ccc([N+](C)(C)C)cc2)cc1.[Cl-].[Cl-]` [Methyl Green, methyl green], in [7], the E1/2 result is given as “approximately -0.55 V”.
On to `CN(C)c1ccc2nc3ccc(=[N+](C)C)cc-3sc2c1` [Methylene Blue (USP), Methylene Blue], for which the Mutagenicity entry with Salmonella typhimurium is “+”. Besides, in data set [2], the “Teratogen Activity” value is reported as “-”. For the same molecule, the Em7 result in data set [7] is “+0.01 V”. The “Tumorigen Activity” value in [3] is reported as “-”.
For the molecule `c1ccc(-c2cnc(-c3ccc(-c4ncc(-c5ccccc5)o4)cc3)o2)cc1` [POPOP], in the data set with rat liver microsomes [1], the “Invention Response” value is reported as “Negative”. Moreover, the “Carcinogenic Status” value in data set [3] is listed as “Negative”.
On to `Oc1ccccc1` [Phenol], for which, in the data set with cytochrome P450IA1, the “Dose-response shift” value was “less significantly”. For the same molecule, the “Invention Response” value in the data set with rat liver microsomes [1] is “Positive”. Besides, the “Teratogen Activity” value in data set [2] is recorded as “-”. In addition, the “Detector Response, threshold dose” value in the data set with rat liver microsomes [4] was determined as 0.02. Besides, in data set [3], the “Carcinogenic Status” value is listed as “Possible” and the “Tumorigen Activity” value is recorded as “-”.
With `Nc1c(Cl)c(Cl)nc(C(=O)O)c1Cl` [Picloram (ind.), Picloram], in the data set on Salmonella typhimurium, the Mutagenicity entry was “-”. For the same molecule, the “Teratogen Activity” value in data set [2] is reported as “+”. The “Detector Response, threshold dose” value in the data set on rat liver microsomes [4] is 0.01. Further, the “Tumorigen Activity, assignment based on NCI/NTP carcinogenesis bioassay results” value in data set [3] was “+”.
In the case of `O=C1C=CC(=O)C=C1.Oc1ccc(O)cc1` [Quinhydrone], the Mutagenicity entry with Salmonella typhimurium is reported as “-”. Also, the “Teratogen Activity” value in data set [2] was “-”. In addition, the “Detector Response, threshold dose” value in the data set on rat liver microsomes [4] is 0.1-0.2. In addition, the “Tumorigen Activity” value in data set [3] is on record as “+^e”.
In the case of `Cc1cc2nc3cc(C)c(N)cc3[n+](-c3ccccc3)c2cc1N.[Cl-]` [Safranin O], the Em7 in data set [7] is given as -0.28 V.
For the molecule `C=Cc1ccccc1` [Styrene], in the data set on rat liver microsomes [1], the “Invention Response” value is on record as “Negative”. The “Carcinogenic Status” value in [3] is reported as “Negative”.
As to `OC[C@H]1O[C@@](CO)(O[C@H]2O[C@H](CO)[C@@H](O)[C@H](O)[C@H]2O)[C@@H](O)[C@@H]1O` [Sucrose], the “Invention Response” value in the data set with rat liver microsomes [1] is reported as “Negative”. In addition, the “Carcinogenic Status” value in data set [3] was “Negative”.
On to `ClC=C(Cl)Cl` [Trichloroethylene], for which, in the data set on cytochrome P450IA1, the “Dose-response shift” value is on record as “less significantly”. For the same molecule, in the data set with Salmonella typhimurium, the Mutagenicity entry is recorded as “+”. Besides, the “Teratogen Activity” value in [2] was “+”. Besides, the “Detector Response, threshold dose” value in the data set on rat liver microsomes [4] stood at 150. The “Tumorigen Activity” value in data set [3] is “+”.
`Cc1cccc(O)c1` [m-Cresol]: in the data set on Salmonella typhimurium, the Mutagenicity entry is given as “-”. Further, the “Teratogen Activity” value in [2] is recorded as “-”. Besides, the “Detector Response, threshold dose” value in the data set with rat liver microsomes [4] is given as 2. The “Tumorigen Activity” value in data set [3] is given as “-”.
On to `CN(C)c1ccc(C(=C2C=CC(=[N+](C)C)C=C2)c2ccccc2)cc1` [malachite green], for which the E1/2 in [7] is given as -0.55 V.
As for `O=S([O-])S(=O)[O-].[Na+].[Na+]` [sodium dithionite], the Em7 in data set [7] is less than -0.5 V.
Consider Copper(II), for which the Mutagenicity result in the data set on Salmonella typhimurium is listed as “-”. The “Teratogen Activity” value in [2] was “+”. In addition, the “Detector Response, threshold dose” value in the data set on rat liver microsomes [4] came to 5. The “Tumorigen Activity” value in data set [3] is “+/-”.
In the case of Cr(VI), the Mutagenicity result in the data set with Salmonella typhimurium is on record as “+”. The “Teratogen Activity” value in data set [2] was “-”. Further, in the data set with rat liver microsomes [4], the “Detector Response, threshold dose” value is listed as 0.1. In addition, the “Tumorigen Activity” value in data set [3] is given as “+^e”.
With Nile Blue A, the Em7 in data set [7] is -0.12 V.
Regarding dichromate, the “Direct reaction” value in data set [6] is listed as “react directly with the indicator dye”.
On to methyl violet, for which, in data set [7], the E1/2 entry is “approximately -0.75 V”.
